Experimental data taken from patent US11406642B2, “DNP and DNP prodrug treatment of neuromuscular, neurodegenerative, autoimmune, developmental, traumatic brain injury, concussion, dry eye disease, hearing loss and/or metabolic diseases” (priority 2016, dated 2022).
Entries after “also recorded” stand apart in the source; their conditions may differ.

Experiments:
[1] = 28-day toxicity studies; format: in vivo; conditions: low doses
Excerpt: (§1) Overt reactive oxygen species (ROSs) can be produced due to noise and certain ototoxic drugs that can damage the hair cells of the ear, resulting in either temporary or permanent hearing loss. Exposure to blast waves and continuous noise not only damaged the inner ear, but caused cell death in the hippocampus, suppressed neurogenesis and impaired memory function. Aging as well can manifest in mitochondrial dysfunction leading to hearing loss. It is emerging that attempts to treat hearing loss by targeting downstream issues is not very effective. In one embodiment, the compositions and methods of the invention relate to targeting oxidative stress upstream at the mitochondria that may be causative for many disorders. There have been a variety of attempts to lower cellular stress, such as administering anti-oxidants, however these drugs have limited tissue penetration into the brain and lower ROSs after they have been formed. […] While not being bound to theory, it is postulated that DNP modulates the mitochondrial membrane potential having a significant impact at preventing ROS formation in isolated mitochondria and in the treated wildtype mice. DNP treatment 3-hours post-ischemia reduced cerebral infarct volume 40% by protecting the penumbra or “threaten tissue” and could provide similar benefits after a blast to protect inner hair cells from eminent cell death. […]

[2] = tested on: ion channels; experiment: Inhibition of ion channels
Excerpt: as §1

[3] = tested on: Caco-2; experiment: Caco-2; format: in vitro ADME
Excerpt: as §1

[4] = tested on: wildtype mice; experiment: Lifespan of chronically treated wildtype mice; format: in vivo; conditions: wildtype mice chronically treated with an extraordinarily low dose
Excerpt: as §1

[5] = tested on: mouse model of Alzheimer's disease; experiment: Alzheimer's disease mouse model, Morris Water Maze; format: in vivo; conditions: chronic treatment
Excerpt: (§2) In one embodiment, the invention provides compositions and methods for treating neurodegenerative diseases such as Alzheimer's disease, Parkinson, and Huntington's disease. It is believed that the complete lack of historic success is due to most pharmaceutical industries focusing on a downstream event, such as plaques/tangles, whereas the issue is likely upstream at the mitochondria causing high cellular stress.

[6] = tested on: dopaminergic neurons; experiment: Parkinson model using 6-OHDA; format: in vivo; conditions: chronic treatment
Excerpt: as §2

[7] = in rats, general statement; cited from earlier work
[8] = Stability of II-38 in hydrochloric acid buffer, pH 1.2; format: physicochemical; conditions: pH 1.2, 37° C., 5% DMSO, within 8 h
Protocol: (§3) pH: Stability in aqueous buffers (37° C., pHs 1.2 and 7.4)
(§4) HPLC analysis was carried out on an Agilent 1200 Infinity Series Quatpump, equipped with a photodiode array detector and a computer integrating apparatus. An Inertsil ODS-3 column, C18, 5 μm, 4.6×50 mm (GL Science Inc. Japan) protected with a guard column: Alltima C18, 5 μm, 4.6×7.5 mm (Grace Discovery Sciences, IL, USA) was used as the stationary phase. An isocratic method with a mobile phase consisting of water/acetonitrile (70:30) containing 0.05% formic acid in each was used. A flow rate of 0.9 mL/min was used and detection was carried out at a UV wavelength of 250 nm.
Hydrochloric acid, pH 1.2 buffer was prepared. II-38 (2.5 mg) was dissolved in 0.125 mL of DMSO (5%). Reactions were initiated by adding II-38 dissolved in DMSO slowly and gradually to a total volume of 2.375 mL of HCl buffer, pH 1.2 (Table 1) in a Franz cell diffusion chamber preheated to 37° C. The solution was mixed for 30 sec every half an hour using magnetic stirrer. Samples of 20 μL (20 μg/mL of II-38) were collected at 0, 1, 2, 4, 6 and 8 h. Each sample was mixed with acetonitrile QS to 1 mL, vortex-mixed for 30 sec and centrifuged at 10,000 rpm at room temp. A volume of 10 μL of the supernatant was injected into the HPLC spectrometer for detection of 2,4-DNP and II-38 in HCl buffer, pH 1.2.

[9] = Stability of II-38 in phosphate buffer, pH 7.4; format: physicochemical; conditions: pH 7.4, 37° C., 5% DMSO, within 8 h
Protocol: as §3, §4
Formulation of II-38 in phosphate buffer (PB): to formulate 1 mg/mL of II-38 in PB, 2.6 mg of II-38 was formulated in 0.13 mL of DMSO (i.e. 5%) and added slowly and gradually to a total volume of 2.47 mL of preheated PB (Table 2) in a Franz cell diffusion chamber preheated to 37° C. The solution was mixed for 30 sec every half an hour using magnetic stirrer. Samples of 20 μL (20 ug/mL of II-38) were collected at 0, 0.5, 1, 2, 4, 6 and 8 h. Each sample was mixed with acetonitrile QS to 1 mL, vortex-mixed for 30 sec and centrifuged at 10,000 rpm at room temp. A volume of 10 μL of the supernatant was injected into the HPLC spectrometer.

[10] = Stability in simulated gastric fluid (SGF), pH 1.2; format: in vitro ADME; conditions: pH 1.2, 37° C.
Protocol: GI: Stability in simulated gastric fluid (USP, 37° C.)
as §4
To formulate 1 mg/mL of II-38 in SGF, 3.1 mg of II-38 was dissolved in 0.155 mL of DMSO (i.e. 5%) and added slowly and gradually to a total volume of 2.945 mL of preheated SGF (Table 3) in a cell diffusion chamber preheated to 37° C. The solution was mixed for 30 sec. every half an hour using magnetic stirrer. Samples of 20 μL (20 μg/mL of II-38) were collected at 0, 1, 2, 4, 6 and 8 h. Each sample was mixed with acetonitrile QS to 1 mL, vortex-mixed for 30 sec and centrifuged at 10,000 rpm at room temp. A volume of 10 μL of the supernatant was injected into the HPLC spectrometer.

[11] = Stability in simulated intestinal fluid (SIF), pH 6.8; format: in vitro ADME; conditions: pH 6.8, 37° C.
Protocol: GI: Stability in simulated intestinal fluid (USP, 37° C.)
as §4
Formulation of II-38 in SIF buffer, pH 6.8: to formulate 1 mg/mL of II-38 in SIF, 2.6 mg of II-38 was dissolved in 0.13 mL of DMSO (i.e. 5%) and titrated slowly and gradually to a total volume of 2.47 mL of preheated SIF (Table 4) in a cell diffusion chamber preheated to 37° C. The solution was mixed for 30 sec every half an hour using magnetic stirrer. Samples of 20 μL (20 μg/mL of II-38) were collected at 0, 0.5, 1, 2, 4, 6 and 8 h (FIGS. 12A and 12B). Each sample was mixed with acetonitrile QS to 1 mL, vortex-mixed for 30 sec and centrifuged at 10,000 rpm at room temp. A volume of 10 μL of the supernatant was injected into the HPLC spectrometer (FIG. 11).

SMILES | Safety Index [1] [×] | toxicity [1] | inhibition to ion channels [2] | inhibition, Caco-2 [3] | lifespan [4] | short term memory in the Morris Water Maze [5] | protection of dopaminergic neurons [6] | half-life [7] [h] | hydrolysis / stability in HCl buffer [8] | hydrolysis / stability in phosphate buffer [9] | stability in SGF [10] | stability in SIF [11]
O=[N+]([O-])c1ccc(O)c([N+](=O)[O-])c1 [2,4-DNP, 2,4-dinitrophenol] | ≥ 10 | not toxic | no inhibition | no inhibition | living longer than untreated mice | strikingly improved | positive protective effect | ~6 |  |  |  | 
O=C(Oc1ccc([N+](=O)[O-])cc1[N+](=O)[O-])N1CCOCC1 [II-38, 2,4-Dinitrophenyl morpholine-4-carboxylate] |  |  |  |  |  |  |  |  | no significant hydrolysis; also recorded: did not show significant hydrolysis; also recorded: no evidence of 2,4-DNP formation | no significant hydrolysis; also recorded: did not show significant hydrolysis; also recorded: no evidence of 2,4-DNP formation | stable | stable
